Values of other authors in patent US4537898A, “Liquid formulations of dihydropyridines” (priority 1983, dated 1985).

COCCOC(=O)C1=C(C)NC(C)=C(C(=O)OC(C)C)C1c1cccc([N+](=O)[O-])c1 (stereo not shown) [nimodipine, Nimodipine]
solubility in water: 0.2 mg per 100 ml
